Values of other authors as cited in US20230172880A1, “FAST-ACTING TOPICAL ANESTHETIC FORMULATIONS” (priority 2020, published 2023).

Settings: administered directly into tissue

## CCN(CC)CC(=O)Nc1c(C)cccc1C [lidocaine]
  onset: less than 2 min
